Structures can show the parent of a compound that is named as a salt.
molecular target: human activated kallikrein enzyme (Homo sapiens, UniProt P03952); test: Inhibition of human activated plasma kallikrein, fluorogenic PFR-AMC substrate, 500 pM enzyme format; format: biochemical; conditions: 500 pM activated kallikrein; 300 μM PFR-AMC; 30 min preincubation; 10 min room temperature; pH 7.5; read-out: Primary Dose Response Assay: Average EC50
Procedure, shortened: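 500 pM activated kallikrein preincubated 30 min at room temperature with inhibitors in pH 7.5 Tris/EDTA/NaCl buffer with PEG-400 and Triton X-100. Reaction started with 300 μM PFR-AMC, run 10 min at room temperature; AMC fluorescence read at ex 380/em 460 nm.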

Chain of human activated kallikrein enzyme (P03952 391-638 limits assumed): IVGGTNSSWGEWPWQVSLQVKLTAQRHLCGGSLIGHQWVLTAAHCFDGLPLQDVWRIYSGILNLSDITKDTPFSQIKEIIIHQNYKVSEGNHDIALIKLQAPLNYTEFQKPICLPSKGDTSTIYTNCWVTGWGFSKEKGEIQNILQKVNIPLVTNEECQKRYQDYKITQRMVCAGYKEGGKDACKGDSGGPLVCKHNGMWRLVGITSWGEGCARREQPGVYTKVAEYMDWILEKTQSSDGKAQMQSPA
Chain of human activated kallikrein enzyme (P03952 20-390 partner limits assumed): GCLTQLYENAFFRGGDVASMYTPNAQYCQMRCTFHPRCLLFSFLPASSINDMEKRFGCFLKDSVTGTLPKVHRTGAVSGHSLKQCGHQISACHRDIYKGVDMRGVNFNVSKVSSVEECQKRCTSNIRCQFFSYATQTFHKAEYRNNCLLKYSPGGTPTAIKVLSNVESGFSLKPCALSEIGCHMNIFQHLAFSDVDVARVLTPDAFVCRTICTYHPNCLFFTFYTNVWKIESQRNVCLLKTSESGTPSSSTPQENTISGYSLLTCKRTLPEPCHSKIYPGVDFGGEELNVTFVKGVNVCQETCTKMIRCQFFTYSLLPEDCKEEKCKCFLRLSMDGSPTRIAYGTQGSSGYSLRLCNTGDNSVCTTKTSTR

| Structure (SMILES) | EC50 [nM] |
| --- | --- |
| Cc1cc2c(N)nccc2c(C)c1CNC(=O)c1cnn(Cc2cnc3cc(Cl)ccc3c2)c1 [Example 61, N-((1-amino-5,7-dimethylisoquinolin-6-yl)methyl)-1-((7-chloroquinolin-3-yl)methyl)-1H-pyrazole-4-carboxamide] | < 1 |
| Cc1cc2c(N)nccc2c(C)c1CNC(=O)c1cnn(Cc2cc3ccc(Cl)cc3s2)c1 [Example 81, N-((1-amino-5,7-dimethylisoquinolin-6-yl)methyl)-1-((6-chlorobenzo[b]thiophen-2-yl)methyl)-1H-pyrazole-4-carboxamide] | 1 to 10 |
| Cc1ccc2ccc(Cn3cc(C(=O)NCc4c(C)cc5c(N)nccc5c4C)cn3)cc2n1 [Example 27, N-((1-amino-5,7-dimethylisoquinolin-6-yl)methyl)-1-((2-methylquinolin-7-yl)methyl)-1H-pyrazole-4-carboxamide] | < 1 |
| Cc1cc2c(N)nccc2c(C)c1CNC(=O)c1cnn(Cc2ccc(CC(=O)N3CCC3)cc2)c1 [Example 219, N-((1-amino-5,7-dimethylisoquinolin-6-yl)methyl)-1-(4-(2-(azetidin-1-yl)-2-oxoethyl)benzyl)-1H-pyrazole-4-carboxamide] | < 1 |
| Cc1cc2c(N)nccc2c(C)c1CNc1cc(OCc2ccc(CCn3cccn3)cc2)cnn1 [Example 278, 6-(((5-((4-(2-(1H-pyrazol-1-yl)ethyl)benzyl)oxy)pyridazin-3-yl)amino)methyl)-5,7-dimethylisoquinolin-1-amine] | 1 to 10 |
| Cc1cc2c(N)nccc2c(C)c1CNC(=O)c1cnn(Cc2nc3ccccc3n2C(C)C)c1 [Example 71, N-((1-amino-5,7-dimethylisoquinolin-6-yl)methyl)-1-((1-isopropyl-1H-benzo[d]imidazol-2-yl)methyl)-1H-pyrazole-4-carboxamide] | 100 to 1000 |
| Cc1cc2c(N)nccc2c(C)c1CNC(=O)c1cnn(Cc2nc3ccccc3n2C)c1 [Example 75, N-((1-amino-5,7-dimethylisoquinolin-6-yl)methyl)-1-((1-methyl-1H-benzo[d]imidazol-2-yl)methyl)-1H-pyrazole-4-carboxamide] | 100 to 1000 |
| Cc1cc2c(N)nccc2c(C)c1CNc1cc(OCc2cn3cc(C4CC4)cc(-n4c(C)nnc4C)c3n2)ncn1 [Example 257, 6-(((6-((6-cyclopropyl-8-(3,5-dimethyl-4H-1,2,4-triazol-4-yl)imidazo[1,2-a]pyridin-2-yl)methoxy)pyrimidin-4-yl)amino)methyl)-5,7-dimethylisoquinolin-1-amine] | 1 to 10 |
| Cc1cc2c(N)nccc2c(C)c1CNC(=O)c1cnn(Cc2ccccc2)c1 [Example 160, N-((1-amino-5,7-dimethylisoquinolin-6-yl)methyl)-1-benzyl-1H-pyrazole-4-carboxamide] | 100 to 1000 |
| Cc1cc(Cn2cc(C(=O)NCc3c(C)cc4c(N)nccc4c3C)cn2)cc(C)c1CC(=O)N(C)C [Example 20, N-((1-amino-5,7-dimethylisoquinolin-6-yl)methyl)-1-(4-(2-(dimethylamino)-2-oxoethyl)-3,5-dimethylbenzyl)-1H-pyrazole-4-carboxamide] | < 1 |
| CC(=O)Nc1nccc2c(C)c(CNC(=O)c3cnn(Cc4ccc5ncc(Cl)cc5c4)c3)c(C)cc12 [Example 133, N-((1-acetamido-5,7-dimethylisoquinolin-6-yl)methyl)-1-((3-chloroquinolin-6-yl)methyl)-1H-pyrazole-4-carboxamide] | 10 to 100 |
| Cc1cc2c(N)nccc2c(C)c1CNC(=O)c1cnn(Cc2ccc(Cc3nncn3C)cc2)c1 [Example 117, N-((1-amino-5,7-dimethylisoquinolin-6-yl)methyl)-1-(4-((4-methyl-4H-1,2,4-triazol-3-yl)methyl)benzyl)-1H-pyrazole-4-carboxamide] | 1 to 10 |
| CCc1cccc2nc(Cn3cc(C(=O)NCc4c(C)cc5c(N)nccc5c4C)cn3)cn12 [Example 140, N-((1-amino-5,7-dimethylisoquinolin-6-yl)methyl)-1-((5-ethylimidazo[1,2-a]pyridin-2-yl)methyl)-1H-pyrazole-4-carboxamide] | < 1 |
| Cc1cc2c(N)nccc2c(C)c1CNC(=O)c1cnn([C@@H](C)c2ccccc2)c1 [Example 34, (S)-N-((1-amino-5,7-dimethylisoquinolin-6-yl)methyl)-1-(1-phenylethyl)-1H-pyrazole-4-carboxamide] | 100 to 1000 |
| Cc1c(CN)c(C2(C)CC2)cc2c(Nc3cc(OCc4cn5cc(C6CC6)ccc5n4)ncn3)nccc12 [Example 255, 6-(aminomethyl)-N-(6-((6-cyclopropylimidazo[1,2-a]pyridin-2-yl)methoxy)pyrimidin-4-yl)-5-methyl-7-(1-methylcyclopropyl)isoquinolin-1-amine] | 100 to 1000 |
| Cc1cc2c(N)nccc2c(C)c1CNC(=O)c1cnn(Cc2ccc3ncccc3n2)c1 [Example 150, 1-((1,5-naphthyridin-2-yl)methyl)-N-((1-amino-5,7-dimethylisoquinolin-6-yl)methyl)-1H-pyrazole-4-carboxamide] | 10 to 100 |
| COc1ccccc1Cn1cc(C(=O)NCc2c(C)cc3c(N)nccc3c2C)cn1 [Example 33, N-((1-amino-5,7-dimethylisoquinolin-6-yl)methyl)-1-(2-methoxybenzyl)-1H-pyrazole-4-carboxamide] | 100 to 1000 |
| Cc1ccc2cc(Cn3cc(C(=O)NCc4c(C)cc5c(N)nccc5c4C)cn3)ccc2n1 [Example 64, N-((1-amino-5,7-dimethylisoquinolin-6-yl)methyl)-1-((2-methylquinolin-6-yl)methyl)-1H-pyrazole-4-carboxamide] | < 1 |

The remaining lines, values ahead:

| EC50 [nM] | Structure (SMILES) |
| --- | --- |
| 1 to 10 | Cc1cc2c(N)nccc2c(C)c1CNc1cc(N2C[C@@H](O[Si](C)(C)C(C)(C)C)C[C@@H]2c2cn3cc(C4CC4)ccc3n2)ncn1 [Example 512, 6-(((6-((2R,4S)-4-((tert-butyldimethylsilyl)oxy)-2-(6-cyclopropylimidazo[1,2-a]pyridin-2-yl)pyrrolidin-1-yl)pyrimidin-4-yl)amino)methyl)-5,7-dimethylisoquinolin-1-amine] |
| 1 to 10 | Cc1cc2c(N)nccc2c(C)c1CNc1cc(NCc2ccc3c(c2)OCCN3C)ncn1 [Example 326, N^4-((1-amino-5,7-dimethylisoquinolin-6-yl)methyl)-N^6-((4-methyl-3,4-dihydro-2H-benzo[b][1,4]oxazin-7-yl)methyl)pyrimidine-4,6-diamine, formic acid salt] |
| 1 to 10 | Cc1cc2c(N)nccc2c(C)c1CNc1cc(NCc2ccc3c(c2)N(C)C(=O)CO3)ncn1 [Example 327, 6-(((6-(((1-amino-5,7-dimethylisoquinolin-6-yl)methyl)amino)pyrimidin-4-yl)amino)methyl)-4-methyl-2H-benzo[b][1,4]oxazin-3(4H)-one, formic acid salt] |
| 1 to 10 | CCOC(=O)C(C)(C)Cc1cc(C2CC2)cc2cc(COc3cc(NCc4c(C)cc5c(N)nccc5c4C)ncn3)nn12 [Example 396, ethyl 3-(2-(((6-(((1-amino-5,7-dimethylisoquinolin-6-yl)methyl)amino)pyrimidin-4-yl)oxy)methyl)-5-cyclopropylpyrazolo[1,5-a]pyridin-7-yl)-2,2-dimethylpropanoate] |
| 1 to 10 | Cc1cc2c(N)nccc2c(C)c1CNc1cc(OCc2ccc(Cn3ccccc3=O)cc2)c(Cl)cn1 [Example I-456, 1-(4-(((2-(((1-amino-5,7-dimethylisoquinolin-6-yl)methyl)amino)-5-chloropyridin-4-yl)oxy)methyl)benzyl)pyridin-2(1H)-one] |
| 10 to 100 | Cc1cc2c(N)nccc2c(C)c1CNc1nccnc1OCc1cn2cc(C3CC3)ccc2n1 [Example 287, 6-(((3-((6-cyclopropylimidazo[1,2-a]pyridin-2-yl)methoxy)pyrazin-2-yl)amino)methyl)-5,7-dimethylisoquinolin-1-amine] |
| < 1 | Cc1cnc2ccc(C(C)Oc3cnnc(NCc4c(C)cc5c(N)nccc5c4C)c3)cc2c1 (stereo not shown) [Example 419, 5,7-dimethyl-6-(((5-(1-(3-methylquinolin-6-yl)ethoxy)pyridazin-3-yl)amino)methyl)isoquinolin-1-amine] |
| < 1 | Cc1cc2c(N)nccc2c(C)c1CNc1cc(NCc2ccc(Cc3nccs3)cc2)ncn1 [Example 362, N^4-((1-amino-5,7-dimethylisoquinolin-6-yl)methyl)-N^6-(4-(thiazol-2-ylmethyl)benzyl)pyrimidine-4,6-diamine] |
| 1 to 10 | Cc1cc2c(N)nccc2c(C)c1CNc1cc(NCc2cnc3ccccc3c2)ncn1 [Example 317, N^4-((1-amino-5,7-dimethylisoquinolin-6-yl)methyl)-N^6-(quinolin-3-ylmethyl)pyrimidine-4,6-diamine, formic acid salt] |
| > 1000 | Cc1cc2c(N)nccc2c(C)c1CNc1cc2c(ccn2Cc2ccc3ncccc3c2)cn1 [Example 528, 5,7-dimethyl-6-(((1-(quinolin-6-ylmethyl)-1H-pyrrolo[3,2-c]pyridin-6-yl)amino)methyl)isoquinolin-1-amine] |
| < 1 | Cc1cc2c(N)nccc2c(C)c1CNc1cc(OC(C)c2ccc3ncc(Cl)cc3c2)cnn1 (stereo not shown) [Example 420, 6-(((5-(1-(3-chloroquinolin-6-yl)ethoxy)pyridazin-3-yl)amino)methyl)-5,7-dimethylisoquinolin-1-amine formic acid salt] |
| 1 to 10 | Cc1cc2c(N)nccc2c(C)c1CNc1cc(NCc2ccc(Cc3cnccn3)cc2)ncn1 [Example 338, N^4-((1-amino-5,7-dimethylisoquinolin-6-yl)methyl)-N^6-(4-(pyrazin-2-ylmethyl)benzyl)pyrimidine-4,6-diamine] |

same assay, conditions: Primary Dose Response Assay: Average EC50, 500 pM activated kallikrein; 300 μM PFR-AMC; 30 min preincubation; 10 min room temperature; pH 7.5

| EC50 [nM] | Structure (SMILES) |
| --- | --- |
| < 1 | Cc1cc(CNc2cc(NCc3c(C)cc4c(N)nccc4c3C)ncn2)cc(C)c1CC(=O)N1CC2CC2C1 (stereo not shown) [Example 359, 2-(4-(((6-(((1-amino-5,7-dimethylisoquinolin-6-yl)methyl)amino)pyrimidin-4-yl)amino)methyl)-2,6-dimethylphenyl)-1-(3-azabicyclo[3.1.0]hexan-3-yl)ethan-1-one] |

Source: US20260374754A1, “N-((ISOQUINOLIN-6-YL)METHYL)-1H-PYRAZOLE-4-CARBOXAMIDE DERIVATIVES AS PLASMA KALLIKREIN INHIBITORS FOR THE TREATMENT OF HEREDITARY ANGIODEMA” (Takeda Pharmaceutical Company Limited, priority 2022, published 2026)
